Measurements reported in US20130267558A1, “PHARMACEUTICAL COMPOSITION FOR TREATING OR PREVENTING ALCOHOLIC LIVER DISEASES, CONTAINING CILOSTAZOL AS ACTIVE INGREDIENT” (INDUSTRY-ACADEMIC COOPERATION FOUNDATION YEUNGNAM UNIVERSITY, priority 2010, published 2013).

Experiments:
[1] = tested on: caspase-3; assay: Caspase-3 colorimetric activity assay kit (DEVD-pNA) in ethanol-treated liver cells; type: cell-based, Sprague-Dawley rats or C57BL/6 mouse; details: liver cells pretreated, FIG. 3
Method: (§1) Liver cells were separated from Sprague-Dawley rats (8 to 10 weeks) or C57BL/6 (8 to 10 weeks) mouse via in situ collagenase perfusion, and then cultured in DMEM containing 10% FBS, 100 U/ml penicillin, 100 μg/ml streptomycin, 4 mM L-glutamine, and 100 nM dexamethasone. After 3 hours, the culture solution was replaced with DMEM including 0.1% FBS and 10 nM dexamethasone, and then, cultured for 16 hours (overnight). For the treatment, the cells were treated with various concentrations of ethanol (0, 100, 200 mM) alone or together with cilostazol (Otsuka) or pentoxifylline which is used as a therapeutic agent for alcoholic hepatitis, and the resultant cell reactions were compared with each other. After the treatment with ethanol, a culture dish was sealed with a parafilm to prevent evaporation of ethanol. Also, the caspase-3 activity was measured by using an activity assay kit (R&D kit). That is, caspase-3 activity was measured by using a caspase-3 colorimetric assay kit (R&D system, Minneapolis, Minn.). Liver cells were lysed by using lysis buffer, and then the protein (150 μg) was incubated with DEVD-pNA, a caspase-3 substrate at 37° C. for 2 hours, and then absorption of the product was measured at a wavelength of 405 nm.

[2] = tested on: caspase-3; assay: Liver caspase-3 activity in alcohol-induced acute liver injury animal model; type: in vivo; details: mice; oral 100 mg/kg for 4 days before ethanol 6 g/kg oral; FIG. 9
Method: Also, the caspase-3 activity was measured by using an activity assay kit (R&D kit). That is, caspase-3 activity was measured by using a caspase-3 colorimetric assay kit (R&D system, Minneapolis, Minn.). Liver cells were lysed by using lysis buffer, and then the protein (150 μg) was incubated with DEVD-pNA, a caspase-3 substrate at 37° C. for 2 hours, and then absorption of the product was measured at a wavelength of 405 nm.

[3] = tested on: primary cultured liver cells; assay: MTS assay, viability of primary cultured liver cells treated with ethanol; type: cell-based, Sprague-Dawley rats or C57BL/6 mouse; details: pretreatment 100 μM; ethanol 100, 200 mM for 24 hour; vs DMSO group; FIG. 1
Method: Liver cells were separated from Sprague-Dawley rats (8 to 10 weeks) or C57BL/6 (8 to 10 weeks) mouse via in situ collagenase perfusion, and then cultured in DMEM containing 10% FBS, 100 U/ml penicillin, 100 μg/ml streptomycin, 4 mM L-glutamine, and 100 nM dexamethasone. After 3 hours, the culture solution was replaced with DMEM including 0.1% FBS and 10 nM dexamethasone, and then, cultured for 16 hours (overnight). For the treatment, the cells were treated with various concentrations of ethanol (0, 100, 200 mM) alone or together with cilostazol (Otsuka) or pentoxifylline which is used as a therapeutic agent for alcoholic hepatitis, and the resultant cell reactions were compared with each other. After the treatment with ethanol, a culture dish was sealed with a parafilm to prevent evaporation of ethanol. MTS assay was performed in the following manner to identify effects of cilostazol on decreased liver cell viability caused by ethanol. That is, the viability of liver cells was measured by using a MTS assay kit (Promega, Madison, Wis., USA). […] An MTS solution were added to the respective wells and then, the cells were incubated at 37° C. for 4 hours, and absorption of the result was measured at a wavelength of 490 nm.

[4] = tested on: primary cultured liver cells; assay: Hoechst staining of liver cell apoptosis caused by ethanol; type: cell-based, Sprague-Dawley rats or C57BL/6 mouse; details: pretreatment; Hoechst 33342; FIG. 4
Method: Liver cells were separated from Sprague-Dawley rats (8 to 10 weeks) or C57BL/6 (8 to 10 weeks) mouse via in situ collagenase perfusion, and then cultured in DMEM containing 10% FBS, 100 U/ml penicillin, 100 μg/ml streptomycin, 4 mM L-glutamine, and 100 nM dexamethasone. After 3 hours, the culture solution was replaced with DMEM including 0.1% FBS and 10 nM dexamethasone, and then, cultured for 16 hours (overnight).
For the treatment, the cells were treated with various concentrations of ethanol (0, 100, 200 mM) alone or together with cilostazol (Otsuka) or pentoxifylline which is used as a therapeutic agent for alcoholic hepatitis, and the resultant cell reactions were compared with each other. After the treatment with ethanol, a culture dish was sealed with a parafilm to prevent evaporation of ethanol.

[5] = tested on: RAW264.7 macrophage; assay: LPS-induced ROS production in RAW264.7 macrophage (H2DCFDA, FACS); type: cell-based; details: pretreatment 100 μM for 1 hour; LPS 50 ng/ml, 4 hours; FIG. 7
Method: RAW264.7 cells were obtained from Korean Cell Line Bank and cultured in a DMEM solution containing 10% FBS, 100 U/ml penicillin, and 100 μg/ml streptomycin for use in experiments. To compare direct effects of ethanol with indirect effects caused by endotoxin, effects of LPS were identified. RAW264.7 macrophage prepared as described above was treated with LPS (50 ng/ml) for 0 to 18 hours. Separately, RAW264.7 macrophage prepared as described above was pretreated with cilostazol (100 μM) or pentoxifylline (100 μM) for 1 hour and then, treated with LPS (50 ng/ml) for 4 hours. The RAW264.7 macrophages were treated with H2DCFDA (50 μM) for 40 minutes, and then, the production of ROS was evaluated by using FACS.

[6] = tested on: TNF-α; assay: LPS-stimulated TNF-α production in RAW264.7 macrophage (ELISA); type: cell-based; details: pretreatment, LPS 50 ng/ml, 4 hours, FIG. 5
Method: RAW264.7 cells were obtained from Korean Cell Line Bank and cultured in a DMEM solution containing 10% FBS, 100 U/ml penicillin, and 100 μg/ml streptomycin for use in experiments. To compare direct effects of ethanol with indirect effects caused by endotoxin, effects of LPS were identified. RAW264.7 macrophage prepared as described above was treated with LPS (50 ng/ml) for 4 hours, and then, TNF-α level in the cell culture was measured by using ELISA kit (R&D).

[7] = tested on: FAS (fatty acid synthase) gene; assay: Liver FAS gene expression (real-time PCR) in alcohol-induced acute liver injury animal model; type: in vivo; details: mice; oral 100 mg/kg for 4 days before ethanol 6 g/kg oral; FAS mRNA normalized to β-actin; FIG. 11
Method: Eight-week old mice were subjected to binge alcohol drinking to induce liver damage. That is, mice were administered orally 6 g/kg of ethanol once. Cilostazol was orally administered in doses of 50 mg/kg/day and 100 mg/kg/day for 4 days before ethanol administration, and ethanol was orally administered 1 h after the last cilostazol administration. Then, animals were sacrificed at different time after ethanol administration.
Effects of cilostazol on the expression of FAS gene were identified by real-time PCR assay. That is, total RNA was extracted from liver tissues by using a trizol reagent, and then 1 μg of total RNA was reverse-transcribed into cDNA by using high-performance cDNA reverse transcription kit (Applied Biosystems, Foster City, Calif., USA). The PCR reaction was performed such that cDNA, the respective primers were reacted with power SYBR Green PCR master mix (Applied Biosystems) by using real-time PCR 7500 software system (Applied Biosystem). The PCR conditions were initial incubation at 95° C. for 10 minutes, followed by 45 cycles of 95° C. for 15 seconds, 55° C. for 20 seconds, and 72° C. for 35 seconds.
FAS mRNA level was normalized to β-actin mRNA level, and shown in fold increase.

[8] = tested on: caspase-3; assay: Caspase-3 activity by Western blotting with cleaved caspase-3 antibody in ethanol-treated liver cells; type: cell-based, Sprague-Dawley rats or C57BL/6 mouse; details: pretreatment 100 μM; ethanol 24 hours; FIG. 2
Method: as §1, with “ethanol.” for “ethanol. Also, the caspase-3 activity was measured by using an activity assay kit (R&D kit). That is, caspase-3 activity was measured by using a caspase-3 colorimetric assay kit (R&D system, Minneapolis, Minn.). Liver cells were lysed by using lysis buffer, and then the protein (150 μg) was incubated with DEVD-pNA, a caspase-3 substrate at 37° C. for 2 hours, and then absorption of the product was measured at a wavelength of 405 nm.”

Row | Compound | caspase-3 activity (activity assay kit) increased by ethanol, effect of pretreatment [1] | liver caspase-3 activity after ethanol administration [2] | liver cell viability decreased by ethanol, effect of pretreatment [3] | nuclear fragmentation caused by ethanol [4] | production of ROS induced by LPS, effect of pretreatment [5] | decrease of LPS-increased TNF-α level in culture media ([6]; p=0.016) [%] | reduction of liver FAS gene expression after ethanol administration [7] | caspase-3 activity (cleaved caspase-3, Western blot) increased by ethanol, effect of pretreatment [8] | inhibitory effect on LPS-increased TNF-α level in culture media [6]
1 | O=C1CCc2cc(OCCCCc3nnnn3C3CCCCC3)ccc2N1 [cilostazol] | almost completely inhibited | significantly reduced | significantly recovered | reduced | neither cilostazol nor pentoxifylline significantly inhibited | ~50 | about 30% | cilostazol showed better inhibitory effects than pentoxifylline | 
2 | CC(=O)CCCCn1c(=O)c2c(ncn2C)n(C)c1=O [pentoxifylline] | reduced caspase-3 activity caused by ethanol, but the inhibitory effect of pentoxifylline was smaller than that of cilostazol |  | did not significantly improve the cell viability |  | neither cilostazol nor pentoxifylline significantly inhibited |  |  | reduced | did not show significant inhibitory effects
